# Data: US8703183B2 (priority 2008, dated 2014)
# Key:
# Sprague Dawley rats = assay type: in vivo; conditions: for Time of lowest level of glucose in blood after administration: both sexes; for Time of lowest level of glucose in blood after administration / Blood glucose level compared to females from the control group: single oral administration; for Mortality in females: single oral dose 1500 mg/kg, female Sprague Dawley rats; for Mortality in males: single oral dose (metformin salts 1500 mg/kg, Glycine 871.6 mg/kg), male Sprague Dawley rats; for Glucose reducing effect: single oral dose, Glycine 871.6 mg/Kg, metformin glycinate 1500 mg/kg
# Procedure: . The following 14 days to administration, toxic effects were evaluated. […]; The cause to deaths was to a pronounced and fast drop in glycemia levels.
# [1] = test system: Hepatic origin cells: CCL13; conditions: 250 mg/ml to 0.12 mg/ml, 24 and 72 hours exposure
# [2] = test system: Kidney origin cells: CRL 1633; conditions: 250 mg/ml to 0.12 mg/ml, 24 and 72 hours exposure
# [3] = test system: Primary cultures: hepatocytes; conditions: 250 mg/ml to 0.12 mg/ml, 24 and 72 hours exposure
# Wistar rats [4] = conditions: both, rat, in vivo, 28 days
# Source text: (§1) Number of animals: 50 Wistar rats, young adults 3 months of age, of both sexes, were used. Five batches with ten animals each. Four experimental groups (10 animals in each group) and a control group.
# (§2) After fasting, different doses (low, medium, high, and satellite and control groups) of the product were orally administered using an orogastric tube.
# (§3) • Low: 0.1 g/kg • Medium: 0.5 g/kg • High: 1.0 g/kg • Satellite 1.0 g/kg • Control: Only the carrier (Bidistilled water)
# Wistar rats [5] = test: Subacute toxicity study at 28 days (OECD Guideline 407); conditions: 0.1, 0.5, 1.0 g/kg oral
# Source text: as §1, §2, §3
SMILES,Time of lowest level of glucose in blood after administration (Sprague Dawley rats),Blood glucose level compared to females from the control group (Sprague Dawley rats),Mortality in females (Sprague Dawley rats),Mortality in males (Sprague Dawley rats),"Lactate level in plasma (Sprague Dawley rats; day of oral administration, 1500 mg/kg)",Glucose reducing effect (Sprague Dawley rats),Cytotoxicity [1],Cytotoxicity [2],Cytotoxicity [3],Reversal of semi-pasty faeces during the course of the study (Wistar rats [4]),Probable dose for the non-observable adverse effect (extrapolation) (Wistar rats [4]; po),Mortality during the 28-day study (Wistar rats [5])
"CN(C)C(=N)NC(=N)N.Cl [Metformin hydrochloride, reference compound]",three,statistically lower blood glucose level 3 and 6 hours after,10%,did not show mortality,–,–,–,–,–,–,–,–
"CN(C)C(=N)NC(=N)N [Metformin glycinate, N,N-dimethylimidodicarbonimidic diamide glycinate]",three,"statistically significant lower blood glucose level 15 min, 30 min and also 3 and 6 hours after",30%,did not show mortality,increase of lactate level in plasma,more pronounced reduction of glucose levels,not cytotoxic,not cytotoxic,not cytotoxic,9th-11th,500 to 1000 mg/kg,No mortality
"NCC(=O)O [Glycine, reference compound]",–,–,–,did not show mortality,–,did not show a marked glucose reducing affect,–,–,–,–,–,–
